Results: patent US20260184689A1, “PIPERIDINE-SUBSTITUTED BENZOIC ACID COMPOUND, AND PHARMACEUTICAL COMPOSITION AND USE THEREOF” (SHANGHAI YISHENG BIOPHARMACEUTICAL COMPANY LIMITED, priority 2022, published 2026)

How the values were obtained:
[1] = Pharmacokinetic activity assay in mice; type: in vivo; details: IV 1 mg/kg, PO 10 mg/kg
Description: Experimental objective: The test substance was administered to mice via single-dose intravenous and oral gavage routes, and its plasma concentration was measured to evaluate the pharmacokinetic characteristics in mice.
Experimental animals: C57 mice or other available test mice
IV dose: 1 mg/kg; vehicle: 0.5% DMSO or 0.5% MeOH-5% pharmaceutical grade polyethylene glycol-15 hydroxystearate-PBS
Sample collection: 0.03 mL of blood samples were collected from the saphenous vein in experimental animals by puncture at each time point, and the actual blood collection time was recorded. All blood samples were added to commercially available EDTA-K2 anticoagulant tubes with a specification of 1.5 mL (supplied by Jiangsu Kangjian Medical Apparatus Co., Ltd.). After collection, within half an hour, the blood sample was centrifuged at 4° C., 3000 g for 10 min to aspirate the supernatant plasma, which was put in dry ice immediately, and stored in a refrigerator at −80° C. for LCMS/MS analysis.
Blood sampling points: 5 min, 15 min, 30 min, 1 hour, 2 hours, 4 hours, 6 hours, 8 hours, 12 hours, 20 hours, 24 hours.
Test compounds: positive compound LNP023, the final product of Example 158, the final products (compound 159A and compound 159B) of Example 159, and compound 11 of Example 75.

[2] = test system: LPS-induced complement activation; assay: In vivo efficacy assay of LPS-induced complement activation in mice; details: female C57BL/6J mice, LPS 100 μg intraperitoneal, PO
Description: Experimental objective: To investigate the inhibitory effect of the compounds of the present disclosure on complement activation in mice induced by LPS stimulation.
Experimental animals: Female C57BL/6J mice, 7 to 9 weeks old, weighing between 17 to 23 g.
Experimental procedure: 100 μg of lipopolysaccharide (LPS) in Salmonella typhimurium (Sigma) dissolved in 100 μL of sterile PBS was intraperitoneally injected to induce complement activation in mice. Negative control animals were intraperitoneally injected 100 μL of sterile PBS and administered alone by tube feeding (PO). Positive control animals were intraperitoneally injected LPS and PO drug vehicles (0.5% (w/v) methyl cellulose and 0.5% (v/v) Tween 80).
Sample collection: 0.3 mL of blood samples were collected from the orbital venous plexus. All blood samples were added to commercially available EDTA-K2 anticoagulant tubes with a specification of 1.5 mL. After collection, within half an hour, the blood sample was centrifuged at 4° C., 3000 g for 10 min to aspirate the supernatant plasma, which was put in dry ice immediately, and stored in a refrigerator at −80° C. for Western blot analysis of downstream C3d protein levels after complement activation.
Sample analysis: Mouse plasma (5 μL)+Lysis buffer (27.5 μL)+Loading buffer (12.5 μL)+Reducing buffer (5 μL) were mixed well and incubated at 100° C. for 15 min with a loading volume of 5 μL/well, i.e., a loading volume of plasma of 0.5 μL per well.
Test compounds: positive compound LNPO23, the final product of Example 158, the final products (compound 159A and compound 159B) of Example 159, and compound 11 of Example 75.

[3] = biological target: T1, Complement factor B (Homo sapiens, UniProt P00751); assay: Human complement factor B ELISA assay (CVF-Bb, complement C3 protein); type: biochemical; set-up: followed by the addition of 0.2 μL of CVF-Bb (0.1 μmol/mL); details: CVF-Bb incubated with compound 1 hour, then complement C3 protein 37° C. 2 hours, OD 450 nm
Description: The mixture was incubated at room temperature for 1 hour;
Then, 9 μL of the successfully incubated samples were taken and added to the wells of the 96T plate, followed by the addition of 1 μL complement C3 protein, and the reaction was carried out at a constant temperature of 37° C. for 2 hours;
The 9 μL of the aforementioned sample-free liquid was mixed with 1 μL of complement C3 protein as the negative control; • 10 μL of the successfully incubated sample was taken, and the inhibitory concentration was determined by ELISA. The OD value at 450 nm was measured, and a curve was plotted. The obtained data were analyzed using GraphPad Prism 7.0 software, and a Log concentration-inhibition rate curve was generated using a nonlinear regression model to calculate the IC50 value.
Target sequence in this assay (P00751 260-764 limits assumed): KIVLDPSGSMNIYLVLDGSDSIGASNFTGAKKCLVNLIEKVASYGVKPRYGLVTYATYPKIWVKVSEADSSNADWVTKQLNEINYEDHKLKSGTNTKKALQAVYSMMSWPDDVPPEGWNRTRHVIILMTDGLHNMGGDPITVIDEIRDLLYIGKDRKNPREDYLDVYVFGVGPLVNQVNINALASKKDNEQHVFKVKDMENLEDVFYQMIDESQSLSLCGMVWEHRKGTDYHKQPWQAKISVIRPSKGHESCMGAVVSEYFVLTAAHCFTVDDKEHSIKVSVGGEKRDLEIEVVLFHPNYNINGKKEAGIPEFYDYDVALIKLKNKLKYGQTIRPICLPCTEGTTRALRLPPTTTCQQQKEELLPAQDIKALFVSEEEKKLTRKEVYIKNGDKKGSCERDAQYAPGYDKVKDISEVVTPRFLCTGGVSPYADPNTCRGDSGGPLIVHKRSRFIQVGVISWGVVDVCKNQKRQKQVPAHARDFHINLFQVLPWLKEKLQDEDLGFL
Target sequence in this assay (Q91132 23-649 partner limits assumed): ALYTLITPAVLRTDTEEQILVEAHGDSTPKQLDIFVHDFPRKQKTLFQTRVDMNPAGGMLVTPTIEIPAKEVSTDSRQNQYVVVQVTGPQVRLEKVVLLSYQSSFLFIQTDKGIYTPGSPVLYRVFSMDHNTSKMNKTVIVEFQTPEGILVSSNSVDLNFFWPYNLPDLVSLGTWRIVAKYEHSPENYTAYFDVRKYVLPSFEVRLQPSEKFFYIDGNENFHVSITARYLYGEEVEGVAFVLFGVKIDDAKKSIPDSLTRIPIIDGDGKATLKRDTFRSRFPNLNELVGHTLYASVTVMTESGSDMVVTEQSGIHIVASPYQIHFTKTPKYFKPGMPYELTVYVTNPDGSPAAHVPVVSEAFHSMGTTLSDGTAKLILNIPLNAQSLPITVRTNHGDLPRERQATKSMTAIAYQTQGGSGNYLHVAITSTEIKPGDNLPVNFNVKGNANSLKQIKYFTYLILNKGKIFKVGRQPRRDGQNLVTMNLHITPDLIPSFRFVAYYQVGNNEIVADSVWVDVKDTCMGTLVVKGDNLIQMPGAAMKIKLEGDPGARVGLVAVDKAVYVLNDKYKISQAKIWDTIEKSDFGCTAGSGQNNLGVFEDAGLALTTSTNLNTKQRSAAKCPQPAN
Target sequence in this assay (Q91132 733-984 partner limits assumed): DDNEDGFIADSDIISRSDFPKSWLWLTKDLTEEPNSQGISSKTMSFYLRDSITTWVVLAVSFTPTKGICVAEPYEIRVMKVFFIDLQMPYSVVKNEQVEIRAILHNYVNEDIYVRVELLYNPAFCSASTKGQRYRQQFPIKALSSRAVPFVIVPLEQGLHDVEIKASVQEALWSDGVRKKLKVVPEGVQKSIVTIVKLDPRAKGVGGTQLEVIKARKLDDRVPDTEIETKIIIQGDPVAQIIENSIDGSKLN
Target sequence in this assay (Q91132 1264-1642 partner limits assumed): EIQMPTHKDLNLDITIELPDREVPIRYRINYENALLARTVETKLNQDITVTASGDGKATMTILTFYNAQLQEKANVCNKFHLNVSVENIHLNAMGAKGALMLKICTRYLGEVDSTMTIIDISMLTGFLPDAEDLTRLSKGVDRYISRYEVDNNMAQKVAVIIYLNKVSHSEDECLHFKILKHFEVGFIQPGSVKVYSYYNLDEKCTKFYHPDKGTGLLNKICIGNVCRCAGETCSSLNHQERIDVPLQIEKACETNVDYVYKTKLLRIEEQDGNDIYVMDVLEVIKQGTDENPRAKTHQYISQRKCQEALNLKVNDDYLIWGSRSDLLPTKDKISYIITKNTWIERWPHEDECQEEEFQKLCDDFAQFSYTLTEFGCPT

[4] = biological target: T1, Complement factor B; assay: Optical surface plasmon resonance (SPR) binding affinity assay
Target sequence in this assay (P00751 26-764): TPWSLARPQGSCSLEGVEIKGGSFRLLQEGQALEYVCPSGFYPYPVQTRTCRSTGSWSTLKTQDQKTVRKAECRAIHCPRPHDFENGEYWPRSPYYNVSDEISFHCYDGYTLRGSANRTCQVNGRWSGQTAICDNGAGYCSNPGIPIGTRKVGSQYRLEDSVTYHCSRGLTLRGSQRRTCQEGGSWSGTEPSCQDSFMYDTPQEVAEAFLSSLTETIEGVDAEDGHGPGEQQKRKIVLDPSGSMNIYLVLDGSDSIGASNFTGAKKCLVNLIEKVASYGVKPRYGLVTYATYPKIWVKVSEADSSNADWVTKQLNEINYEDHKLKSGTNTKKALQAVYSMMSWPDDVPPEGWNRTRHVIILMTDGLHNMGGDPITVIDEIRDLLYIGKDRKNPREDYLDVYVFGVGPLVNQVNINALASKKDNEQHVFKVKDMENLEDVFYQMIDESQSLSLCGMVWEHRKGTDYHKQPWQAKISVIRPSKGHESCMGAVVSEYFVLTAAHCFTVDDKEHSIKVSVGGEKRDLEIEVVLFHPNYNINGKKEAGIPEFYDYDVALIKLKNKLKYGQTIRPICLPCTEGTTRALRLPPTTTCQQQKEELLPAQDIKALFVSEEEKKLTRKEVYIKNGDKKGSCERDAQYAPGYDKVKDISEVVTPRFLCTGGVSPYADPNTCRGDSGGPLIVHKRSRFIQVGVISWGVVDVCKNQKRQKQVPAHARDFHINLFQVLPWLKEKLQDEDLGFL
Description: The SPR experiment was conducted at 25° C. using PBS buffer supplemented with 0.05% (v/v) P20 and 5% DMSO as the running buffer. The Biacore 8K instrument from GE Healthcare was employed for analysis. The CM3 chip (GE Healthcare) was activated with 400 mM EDC and 100 mM NHS at a flow rate of 30 μL/min for 420 s.

CCO[C@H]1CCN(Nc2c(OC)cc(C)c3[nH]ccc23)[C@H](c2ccc(C(=O)O)cc2)C1 [Compound 11 of Example 75, 4-((2S,4S)-4-Ethoxy-1-((5-methoxy-7-methyl-1H-indol-4-yl)amino)piperidin-2-yl)benzoic acid]
clearance rate during in vivo metabolism, compared with LNP023 [1]: comparable or superior | half-life during in vivo metabolism, compared with LNP023 [1]: comparable or superior | inhibition of LPS-induced complement activation (plasma C3d levels), compared with LNP023 [2]: superior or equivalent | IC50 [3]: 10 to 30 nM | Kd [4]: 5 to 20 nM

CCCC1CCN(C(=O)c2c(OC)cc(C)c3[nH]ccc23)C(c2ccc(C(=O)O)cc2)C1 (single isomer, unassigned) [Compound 159A]
clearance rate during in vivo metabolism, compared with LNP023 [1]: comparable or superior | half-life during in vivo metabolism, compared with LNP023 [1]: comparable or superior | inhibition of LPS-induced complement activation (plasma C3d levels), compared with LNP023 [2]: superior or equivalent | IC50 [3]: 5 to 30 nM | Kd [4]: 5 to 20 nM

CCCC1CCN(C(=O)c2c(OC)cc(C)c3[nH]ccc23)[C@H](c2ccc(C(=O)O)cc2)C1 (mixture of isomers) [Final product of Example 158, 4-((2S)-1-(5-Methoxy-7-methyl-1H-indole-4-carbonyl)-4-propylpiperidin-2-yl)benzoic acid]
clearance rate during in vivo metabolism, compared with LNP023 [1]: comparable or superior | half-life during in vivo metabolism, compared with LNP023 [1]: comparable or superior | inhibition of LPS-induced complement activation (plasma C3d levels), compared with LNP023 [2]: superior or equivalent | IC50 [3]: 5 to 30 nM | Kd [4]: 5 to 20 nM
